Results as given in patent US20250179103A1, “6-OXODECAHYDROPYRROLO[1,2-A][1,5]DIAZOCINE AND 6-OXODECAHYDRO-4H-PYRROLO[2,1-D][1,5]THIAZOCINE DERIVATIVES AS STAT3 AND STAT6 MODULATORS FOR THE TREATMENT OF CANCER AND INFLAMMATORY CONDITIONS” (Recludix Pharma, Inc., priority 2022, published 2025).

Experiments:
[1] = biological target: T1, Recombinant STAT3 protein (STAT3(G127-I722)) (Homo sapiens, UniProt P40763); assay: STAT3 Fluorescence Polarization (FP) Assay; assay type: binding; conditions: STAT3(G127-I722) 25 nM, probe 5-FAM-GpYLPQTV-NH2 2 nM, 45-minute incubation
T1 construct: Recombinant STAT3 protein (STAT3(G127-I722))
T1 sequence (P40763 127-722): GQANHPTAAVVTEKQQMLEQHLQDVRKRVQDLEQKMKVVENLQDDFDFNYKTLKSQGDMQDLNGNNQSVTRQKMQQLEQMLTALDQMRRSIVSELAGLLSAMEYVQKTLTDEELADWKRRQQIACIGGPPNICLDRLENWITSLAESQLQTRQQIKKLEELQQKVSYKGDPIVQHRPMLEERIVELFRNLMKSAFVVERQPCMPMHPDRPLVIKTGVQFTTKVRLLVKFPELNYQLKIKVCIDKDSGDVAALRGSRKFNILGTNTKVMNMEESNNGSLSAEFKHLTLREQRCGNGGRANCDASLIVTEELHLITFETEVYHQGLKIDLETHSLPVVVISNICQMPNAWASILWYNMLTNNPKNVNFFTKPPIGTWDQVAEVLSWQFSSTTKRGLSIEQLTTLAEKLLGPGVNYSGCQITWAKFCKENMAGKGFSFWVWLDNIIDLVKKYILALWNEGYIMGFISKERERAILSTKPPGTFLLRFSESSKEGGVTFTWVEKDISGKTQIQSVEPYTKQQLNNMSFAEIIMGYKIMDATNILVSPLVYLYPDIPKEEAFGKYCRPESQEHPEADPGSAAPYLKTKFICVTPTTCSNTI
In short: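 Fluorescence polarization after a 45-min room-temperature incubation measured compound displacement of a 2 nM fluorescein-labelled phosphotyrosine peptide (5-FAM-GpYLPQTV-NH2) from 25 nM recombinant STAT3(G127-I722). Buffer was 10 mM HEPES pH 7.4 with 1% DMSO final. IC50s were fitted by nonlinear regression of mP against log concentration.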

[2] = biological target: T2, Recombinant STAT6 protein (STAT6(W123-T658)) (Homo sapiens, UniProt P42226); assay: STAT6 Fluorescence Polarization (FP) Assay; assay type: binding; conditions: STAT6(W123-T658) 250 nM, probe 5-FAM-ApYKPFQDLI-NH2 2 nM, 45-minute incubation
T2 construct: Recombinant STAT6 protein (STAT6(W123-T658))
T2 sequence (P42226 123-658): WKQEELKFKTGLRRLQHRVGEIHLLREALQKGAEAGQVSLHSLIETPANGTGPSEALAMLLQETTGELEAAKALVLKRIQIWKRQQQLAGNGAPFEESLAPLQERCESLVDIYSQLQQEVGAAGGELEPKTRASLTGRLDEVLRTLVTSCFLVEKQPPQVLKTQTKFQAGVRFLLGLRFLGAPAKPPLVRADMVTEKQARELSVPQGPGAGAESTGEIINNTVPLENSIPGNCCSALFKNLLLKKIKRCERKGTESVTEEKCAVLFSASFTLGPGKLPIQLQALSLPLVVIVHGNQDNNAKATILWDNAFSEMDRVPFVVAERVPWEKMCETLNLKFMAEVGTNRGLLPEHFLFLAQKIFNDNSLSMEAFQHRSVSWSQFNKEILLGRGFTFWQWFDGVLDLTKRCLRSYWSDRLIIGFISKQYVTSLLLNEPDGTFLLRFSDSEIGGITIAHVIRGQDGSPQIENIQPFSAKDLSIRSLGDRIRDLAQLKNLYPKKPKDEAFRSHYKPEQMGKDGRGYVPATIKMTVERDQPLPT
In short: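 Displacement of a fluorescent phosphotyrosine peptide (5-FAM-ApYKPFQDLI-NH2, 2 nM) from STAT6(W123-T658) (250 nM), 1% DMSO, pH 7.4 HEPES buffer. After 45 min at room temperature, polarization (mP) was plotted versus log compound concentration and fitted by nonlinear regression to give IC50.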

Row | SMILES | IC50 [1] [µM] | IC50 [2] [µM]
1 | O=C(N[C@H]1CN(C(=O)c2noc3ccc(Cl)cc23)CC[C@H]2CC[C@@H](C(=O)N3CCOCC3)N2C1=O)c1ccc2ccc(C(F)P(=O)(O)O)cc2c1 (stereo partly drawn) [Compound 365, ((7-(((5S,8S,10aR)-3-(5-chlorobenzo[d]isoxazole-3-carbonyl)-8-(morpholine-4-carbonyl)-6-oxodecahydro-pyrrolo[1,2-a][1,5]diazocin-5-yl)carbamoyl)naphthalen-2-yl)fluoromethyl) phosphonic acid] | > 10 | ≤ 0.3
2 | Cc1ccc2cc(C(=O)N3CC[C@H]4CC[C@@H](C(=O)N5CCOCC5)N4C(=O)[C@@H](NC(=O)c4ccc5ccc(C(F)P(=O)(O)O)cc5c4)C3)cc(Cl)c2n1 (stereo partly drawn) [Compound 366, ((7-(((5S,8S,10aR)-3-(8-chloro-2-methyl-quinoline-6-carbonyl)-8-(morpholine-4-carbonyl)-6-oxodecahydropyrrolo [1,2-a][1,5]diazocin-5-yl)carbamoyl)naphthalen-2-yl)fluoromethyl) phosphonic acid] | > 10 | 0.3 to 3
3 | Cc1ccc2onc(C(=O)N3CC[C@H]4CC[C@@H](C(=O)N5CCN(S(C)(=O)=O)CC5)N4C(=O)[C@@H](NC(=O)c4ccc5ccc(C(F)P(=O)(O)O)cc5c4)C3)c2c1 (stereo partly drawn) [Compound 368, (fluoro(7-(((5S,8S,10aR)-3-(5-methylbenzo[d]isoxazole-3-carbonyl)-8-(4-(methylsulfonyl)piperazine-1-carbonyl)-6-oxodecahydropyrrolo [1,2-a][1,5]diazocin-5-yl)carbamoyl)naphthalen-2-yl)methyl)phosphonic acid] | > 10 | ≤ 0.3
4 | Cc1ccc2onc(C(=O)N3CC[C@H]4CC[C@@H](C(=O)N5CCOC[C@@H]5c5ccccc5)N4C(=O)[C@@H](NC(=O)c4ccc5ccc(C(F)P(=O)(O)O)cc5c4)C3)c2c1 (stereo partly drawn) [Compound 370, (fluoro(7-(((5S,8S, 10aR)-3-(5-methylbenzo[d]isoxazole-3-carbonyl)-6-oxo-((S)-3-phenylmorpholine-4-carbonyl)decahydro-pyrrolo[1,2-a] [1,5]diazocin-5-yl)carbamoyl)naphthalen-2-yl)methyl)phosphonic acid] | > 10 | ≤ 0.3
5 | Cc1ccc2onc(C(=O)N3CC[C@H]4CC[C@@H](C(=O)N5CCOC[C@H]5c5ccccc5)N4C(=O)[C@@H](NC(=O)c4ccc5ccc(C(F)P(=O)(O)O)cc5c4)C3)c2c1 (stereo partly drawn) [Compound 371, (fluoro(7-(((5S,8S,10aR)-3-(5-methylbenzo[d]isoxazole-3-carbonyl)-6-oxo-8-((R)-3-phenylmorpholine-4-carbonyl)decahydro-pyrrolo[1,2-a][1,5]diazocin-5-yl)carbamoyl)naphthalen-2-yl)methyl)phosphonic acid] | > 10 | ≤ 0.3
6 | Cc1ccc2onc(C(=O)N3CC[C@H]4CC[C@@H](C(=O)N5C[C@@H]6C[C@H]5CO6)N4C(=O)[C@@H](NC(=O)c4ccc5ccc(C(F)P(=O)(O)O)cc5c4)C3)c2c1 (stereo partly drawn) [Compound 372, ((7-(((5S,8S,10aR)-8-((1S,4S)-2-oxa-5-azabicyclo[2.2.1]heptane-5-carbonyl)-3-(5-methylbenzo[d]isoxazole-3-carbonyl)-6-oxodecahydropyrrolo [1,2-a][1,5]diazocin-5-yl)carbamoyl)naphthalen-2-yl)fluoromethyl)phosphonic acid] | > 10 | ≤ 0.3
7 | Cc1ccc2onc(C(=O)N3CC[C@H]4CC[C@@H](C(=O)N5CCOC(Cc6ccccc6)C5)N4C(=O)[C@@H](NC(=O)c4ccc5ccc(C(F)P(=O)(O)O)cc5c4)C3)c2c1 (stereo partly drawn) [Compound 373, ((7-(((5S,8S,10aR)-8-(2-benzylmorpholine-4-carbonyl)-3-(5-methylbenzo[d]isoxazole-3-carbonyl)-6-oxodecahydropyrrolo [1,2-a][1,5]diazocin-5-yl)carbamoyl)naphthalen-2-yl)fluoromethyl) phosphonic acid] | > 10 | ≤ 0.3

Next, values leading:

Row | IC50 [1] [µM] | IC50 [2] [µM] | SMILES
8 | > 10 | 0.3 to 3 | O=C(N[C@H]1CN(C(=O)c2noc3c2CCCC3)CC[C@H]2CC[C@@H](C(=O)N3CCOCC3)N2C1=O)c1ccc2ccc(C(F)P(=O)(O)O)cc2c1 (stereo partly drawn) [Compound 358, (fluoro(7-(((5S,8S,10aR)-8-(morpholine-4-carbonyl)-6-oxo-3-(4,5,6,7-tetra-hydrobenzo[d]isoxazole-3-carbonyl)decahydropyrrolo [1,2-a][1,5]diazocin-5-yl)carbamoyl)naphthalen-2-yl)methyl)phosphonic acid]
9 | > 10 | 0.3 to 3 | O=C(N[C@H]1CN(C(=O)c2cc3ncccn3n2)CC[C@H]2CC[C@@H](C(=O)N3CCOCC3)N2C1=O)c1ccc2ccc(C(F)P(=O)(O)O)cc2c1 (stereo partly drawn) [Compound 359, (fluoro(7-(((5S,8S,10aR)-8-(morpholine-4-carbonyl)-6-oxo-3-(pyrazolo[1,5-a]pyrimidine-2-carbonyl)decahydropyrrolo[1,2-a] [1,5]diazocin-5-yl)carbamoyl)naphthalen-2-yl)methyl)phosphonic acid]
10 | > 10 | 0.3 to 3 | O=C(N[C@H]1CN(C(=O)c2noc3c2COCC3)CC[C@H]2CC[C@@H](C(=O)N3CCOCC3)N2C1=O)c1ccc2ccc(C(F)P(=O)(O)O)cc2c1 (stereo partly drawn) [Compound 360, ((7-(((5S,8S,10aR)-3-(6,7-dihydro-4H-pyrano[3,4-d]isoxazole-3-carbonyl)-8-(morpholine-4-carbonyl)-6-oxodecahydropyrrolo [1,2-a][1,5]diazocin-5-yl)carbamoyl)naphthalen-2-yl)fluoromethyl) phosphonic acid]
11 | > 10 | 3 to 30 | CCCS(=O)(=O)N1CC[C@H]2CC[C@@H](C(=O)N3CCOCC3)N2C(=O)[C@@H](NC(=O)c2ccc3ccc(C(F)P(=O)(O)O)cc3c2)C1 (stereo partly drawn) [Compound 361, (fluoro(7-(((5S,8S,10aR)-8-(morpholine-4-carbonyl)-6-oxo-3-(propylsulfonyl)decahydropyrrolo[1,2-a] [1,5]diazocin-5-yl)carbamoyl)naphthalen-2-yl)methyl)phosphonic acid]
12 | > 10 | ≤ 0.3 | COc1ccc2onc(C(=O)N3CC[C@H]4CC[C@@H](C(=O)N5CCOCC5)N4C(=O)[C@@H](NC(=O)c4ccc5ccc(C(F)P(=O)(O)O)cc5c4)C3)c2c1 (stereo partly drawn) [Compound 362, (fluoro(7-(((5S,8S,10aR)-3-(5-methoxybenzo[d]isoxazole-3-carbonyl)-8-(morpholine-4-carbonyl)-6-oxodecahydropyrrolo [1,2-a][1,5]diazocin-5-yl)carbamoyl)naphthalen-2-yl)methyl)phosphonic acid]
13 | > 10 | ≤ 0.3 | COc1ccc2c(C(=O)N3CC[C@H]4CC[C@@H](C(=O)N5CCOCC5)N4C(=O)[C@@H](NC(=O)c4ccc5ccc(C(F)P(=O)(O)O)cc5c4)C3)noc2c1 (stereo partly drawn) [Compound 363, (fluoro(7-(((5S,8S,10aR)-3-(6-methoxybenzoyl[d]isoxazole-3-carbonyl)-8-(morpholine-4-carbonyl)-6-oxodecahydropyrrolo [1,2-a][1,5]diazocin-5-yl)carbamoyl)naphthalen-2-yl)methyl)phosphonic acid]
14 | > 10 | 0.3 to 3 | O=C(N[C@H]1CN(C(=O)c2ncn3c2CCCC3)CC[C@H]2CC[C@@H](C(=O)N3CCOCC3)N2C1=O)c1ccc2ccc(C(F)P(=O)(O)O)cc2c1 (stereo partly drawn) [Compound 364, (fluoro(7-(((5S,8S,10aR)-8-(morpholine-4-carbonyl)-6-oxo-3-(5,6,7,8-tetrahydroimidazo[1,5-a]pyridine-1-carbonyl)decahydropyrrolo[1,2-a][1,5]diazocin-5-yl)carbamoyl)naphthalen-2-yl)methyl)phosphonic acid]
15 | 1 to 10 | ≤ 0.3 | Cc1ccc2[nH]nc(C(=O)N3CC[C@H]4CC[C@@H](C(=O)N5CC(c6cc[nH]c(=O)c6)CC56CC6)N4C(=O)[C@@H](NC(=O)c4ccc5ccc(C(F)(F)P(=O)(O)O)cc5c4)C3)c2c1 (stereo partly drawn) [Compound 367, (difluoro(7-(((5S,8S, 10aR)-3-(5-methyl-1H-indazole-3-carbonyl)-6-oxo-8-(6-(2-oxo-1,2-dihydropyridin-4-yl)-4-azaspiro[2.4]heptane-4-carbonyl)decahydropyrrolo[1,2-a][1,5]diazocin-5-yl)carbamoyl)naphthalen-2-yl)methyl) phosphonic acid]
16 | 1 to 10 | ≤ 0.3 | Cc1ccc2onc(C(=O)N3CC[C@H]4CC[C@@H](C(=O)N5CCN(c6nsc7ccccc67)CC5)N4C(=O)[C@@H](NC(=O)c4ccc5ccc(C(F)P(=O)(O)O)cc5c4)C3)c2c1 (stereo partly drawn) [Compound 369, ((7-(((5S,8S,10aR)-8-(4-(benzo[d]isothiazol-3-yl)piperazine-1-carbonyl)-3-(5-methylbenzo[d]isoxazole-3-carbonyl)-6-oxodecahydropyrrolo [1,2-a][1,5]diazocin-5-yl)carbamoyl)naphthalen-2-yl)fluoromethyl) phosphonic acid]
